From US20250352609A1, “Methods For Treating Alzheimer's Disease or Dementia Using A Calcilytic And A Calcimimetic” (The United States Government As Represented By The …, priority 2024, published 2025)

Tests used:
[1] = tested on: serum PTH (sPTH); test: Serum PTH in aging-associated HPT mice; assay type: in vivo; settings: aged male C57/B6 mice; aducanumab 40 mg/kg/week by twice weekly injections for 5 weeks; Etelcalcetide 0.3 mg/kg once daily
[2] = tested on: APP^NL-G-F mice; test: Y-maze test, cognitive declines in EOAD mice, Etelcalcetide; assay type: in vivo; settings: APP^NL-G-F mice at 10 MOA, daily (5 days/week) injections 500 μg/kg beginning at 6 MOA
Method: Spont Alt indices of Y-maze test in 10 MOA mice carrying humanized Ab sequence without (bAb-KI) or with (APP^NLGF) 4 mutations identified from EOAD patients after daily (5 days/week) injections of vehicle, 500 μg/kg Etelcalcetide (Etel) and/or 12 μmole/kg NPS-2143 (2143) beginning at 6 MOA. Mean±SE, p values by one-way ANOVA, n=19-37 mixed male and female mice/group.
(§1) Based on the outcomes of the above genetically manipulated mice, it was tested whether pharmacological manipulations of serum PTH levels with blood-brain barrier (BBB)-impermeable calcimimetics (e.g., etelcalcetide) that activate CaSR homodimers in PTCs to suppress PTH secretion can prevent the cognitive declines in the aging and APP^NL-G-F/NL-G-F mice.

[3] = tested on: 18 MOA male C57/B6 mice; test: Y-maze test, aging-induced cognitive declines, Etelcalcetide; assay type: in vivo; settings: 18 MOA vs 5 MOA male C57/B6 mice, 8 weeks daily (5 days/week) injections, 500 μg/kg
Method: Spont Alt indices of Y-maze test in 5 and 18 MOA male C57/B6 mice after 8 weeks of daily (5 days/week) injections of vehicle, 500 μg/kg Etelcalcetide (Etel) and/or 12 μmole/kg NPS-2143 (2143). Mean±SE, p values by one-way ANOVA, n=6-12 mice/group.
as §1

[4] = tested on: Tau phosphorylation; test: Aβ1-42-stimulated PTH secretion in vitro with Tau phosphorylation inhibitor; assay type: cell-based; settings: inhibition of Tau phosphorylation
Excerpt: In support of this finding, inhibition of Tau phosphorylation by a staurosporine analogue (K252a) blocked the ability of Aβ1-42 to stimulate PTH secretion in vitro, and the increased tonic PTH hypersecretion seen in mice with PTC-targeted Vdr gene KO (^PTCVdr^Dflox/Dflox), mimicking vitamin D deficiency, was reversed by a concurrent ablation of App (^PTCVdr^Dflox/Dflox; App^Dflox/Dflox) or the TAU-encoding Mapt (^PTCVdr^Dflox/Dflox; Mapt−/−) gene.

[5] = tested on: human PTGs; test: Tonic PTH secretion from cultured human PTGs; assay type: cell-based; settings: exogenous Aβ1-42 0.3 to 1000 nM, concentration-dependent, vs control
Excerpt: (§2) This stimulatory effect was absent in murine PTGs lacking either CaSR or GABAB1R.

[6] = tested on: murine PTGs; test: Ex vivo tonic PTH secretion from cultured murine PTGs; assay type: cell-based
Method: Ex vivo assessments of the impact of different concentrations (0.3 to 1000 nM) Aβ1-42 on PTH secretion from intact PTGs cultured from the 3-month-old mice with homozygous parathyroid-specific App gene KO (square); homozygous parathyroid-specific App and Casr double gene KO (up triangle); homozygous parathyroid-specific App and Gabbr1 double gene KO (down triangle); or homozygous parathyroid-specific App, Casr, and Gabbr1 triple gene KO (diamond). Mean±s.e.m. of n mice as indicated in the plots.
as §2

[7] = tested on: iPSC-derived neurons co-expressing CASR and GABAB1R; test: cAMP production in iPSC-derived neurons challenged by Aβ42; assay type: cell-based; settings: iPSC-derived neurons perfused with Aβ42
Excerpt: Averaged time courses of CAMP in normal iPSC-derived neurons natively expressing CaSR and GABAB1R and challenged by Ab1-42. Cells were continuously perfused with buffer without or with Aβ42 (horizontal bar). Data represent the mean value s.e.m. of n=20 cells and N=3 experiments.
Given that HPT can cause chronic inflammation (Cheng, S. P., et al. Mediators Inflamm 2014, 709024 (2014); çrakolu, M. F. et al. ENT Updates 11, 115-119 (2021); and Almqvist, E. G., et al. Scandinavian journal of clinical and laboratory investigation 71, 139-144 (2011)) and that CaSR expression increases in inflammatory responses in pathological conditions (Jager, E. et al. Nat Commun 11, 4243 (2020); and Iamartino, L. & Brandi, M. L. Front Physiol 13, 1059369 (2022)), including in AD, through interleukin (IL)-1β (IL1β) and IL-6-induced NFkb cis-acting response of CASR gene (Canaff, L. & Hendy, G. N. J Biol Chem 280, 14177-14188 (2005); and Hendy, G. N. & Canaff, Semin Cell Dev Biol 49, 37-43 (2016)), HPT-induced inflammation could be a leading cause for CaSR upregulation as well as for Aβ buildup in AD (Kinney, J. W. et al. Alzheimers Dement (N Y) 4, 575-590 (2018); Ilievski, V. et al. PloS one 13, e0204941 (2018); and Yamamoto, M. et al. Am J Pathol 170, 680-692 (2007)).

How did the “reduction of sPTH” value [1] turn out when `CC(=O)N[C@H](CSSC[C@H](N)C(=O)O)C(=O)N[C@H](C)C(=O)N[C@H](CCCNC(=N)N)C(=O)N[C@H](CCCNC(=N)N)C(=O)N[C@H](CCCNC(=N)N)C(=O)N[C@H](C)C(=O)N[C@H](CCCNC(=N)N)C(N)=O` [Etelcalcetide] was run?
Its value is > 80%.

What about the “early cognitive declines, Y-maze Spont Alt index” value [2] of the same compound?
The value was “partially prevented”.

And the “cognitive declines, Y-maze Spont Alt index” value [3]?
Its value is “partially prevented”.

Which “ability of Aβ1-42 to stimulate PTH secretion” value [4] does the source give for `COC(=O)[C@@]1(O)C[C@H]2O[C@]1(C)n1c3ccccc3c3c4c(c5c6ccccc6n2c5c31)C(=O)NC4` [K252a] here?
Its value is “blocked”.

With “Aβ1-42: b-amyloid (Ab1-42), derivative of amyloid precursor protein, added exogenously to PTG cultures” as the compound, how does the “stimulation of tonic PTH secretion” value [5] read?
The value was ≤ 1.9 fold.

What about the “stimulation of tonic PTH secretion” value ([6]; exogenous Aβ1-42 0.3 to 1000 nM, concentration-dependent, vs control) of the same compound?
The value was “up to 1.6 fold”.

What about the “stimulatory effect on PTH secretion in PTGs lacking either CaSR or GABAB1R” value ([6]; murine PTGs lacking either CaSR or GABAB1R) of the same compound?
Its value is “absent”.

And the “Ca^2+-set point” value ([6]; murine and human PTGs, Aβ1-42 0.3 to 1000 nM)?
The value was “without shifting”.

What about the cAMP production [7] of the same compound?
Its cAMP production is “stimulating cAMP production”.
